Drawing on ChEMBL document CHEMBL4118082 (Eur J Med Chem, 2017), this text covers inhibition of growth and MIC90 for six molecules.

Holding throughout (type): functional
The test system of assay [1] is Mycobacterium tuberculosis. The assay can be described thus: Growth inhibition of Mycobacterium tuberculosis H37Ra Lehmann and Neumann ATCC 25177 harboring pSMT1 luciferase reporter at 10 uM after 6 days by luminescence based serial dilution method relative to control. The conditions noted are these: H37Ra Lehmann and Neumann ATCC 25177, 144 h, read-out: GI. A general note: Reporter assays use an easily measured gene product as a stand-in for the process of interest.

Assay [2] has as its system Mycobacterium tuberculosis. Put plainly: Growth inhibition of Mycobacterium tuberculosis H37Ra Lehmann and Neumann ATCC 25177 harboring pSMT1 luciferase reporter at 1 uM after 6 days by luminescence based serial dilution method relative to control. The conditions noted are these: H37Ra Lehmann and Neumann ATCC 25177, 144 h, read-out: GI.
Assay [3] deals with Mycobacterium tuberculosis. Put plainly: Growth inhibition of Mycobacterium tuberculosis H37Ra Lehmann and Neumann ATCC 25177 harboring pSMT1 luciferase reporter at 0.1 uM after 6 days by luminescence based serial dilution method relative to control. The conditions noted are these: H37Ra Lehmann and Neumann ATCC 25177, 144 h, read-out: GI.
Assay [4] relates to Mycobacterium tuberculosis. Put plainly: Antimycobacterial activity against Mycobacterium tuberculosis H37Ra Lehmann and Neumann ATCC 25177 harboring pSMT1 luciferase reporter after 6 days by luminescence based serial dilution method. The conditions noted are these: H37Ra Lehmann and Neumann ATCC 25177, 144 h.

Structures are written as SMILES. In brackets after ≈: the same amount, converted by molar mass.

For `COc1cccc2c(O)c(-c3ccccc3)c(O)nc12`, the inhibition of growth at 10 µM in assay [1] turned out to be 95%. Further, the inhibition of growth at 1 µM in assay [2] came to 47.5%. Further, the inhibition of growth at 0.1 µM in assay [3] was found to be 42.5%. The molecule also returned an MIC90 in assay [4] of 7.9 µM (≈ 2.11 µg/mL).

As for `Cc1c(O)c2ccccc2[nH]c1=O`, in assay [1], the inhibition of growth at 10 µM amounted to 55.5%. In assay [2], the inhibition of growth at 1 µM was 46.6%. In addition, in assay [3], the inhibition of growth at 0.1 µM was determined as 43.6%. The MIC90 in assay [4] came to 6.8 µM (≈ 1.19 µg/mL).

With `O=c1[nH]c2c(O)cccc2c(O)c1-c1ccccc1`, the inhibition of growth at 10 µM in assay [1] turned out to be 95.3%. Further, in assay [2], the inhibition of growth at 1 µM worked out at 67.1%. Besides, in assay [3], the inhibition of growth at 0.1 µM came to 60%. For the same molecule, the MIC90 in assay [4] worked out at 8.3 µM (≈ 2.1 µg/mL).

With `CC(=O)Oc1c(-c2ccccc2)c(=O)[nH]c2ccc(F)cc12`, in assay [1], the inhibition of growth at 10 µM was determined as 99.2%. In addition, in assay [2], the inhibition of growth at 1 µM came out at 38%. Besides, the inhibition of growth at 0.1 µM in assay [3] is 31%. This molecule returned an MIC90 in assay [4] of 3.8 µM (≈ 1.13 µg/mL).

Turning to `O=c1[nH]c2ccc(O)cc2c(O)c1-c1ccccc1`, the inhibition of growth at 10 µM in assay [1] is 95.1%. Further, the inhibition of growth at 1 µM in assay [2] came to 52.1%. Further, the inhibition of growth at 0.1 µM in assay [3] was determined as 32.3%. The same molecule came in with an MIC90 in assay [4] of 8.3 µM (≈ 2.1 µg/mL).

Regarding `Cc1ccc2[nH]c(=O)c(-c3ccccc3)c(O)c2c1`, in assay [1], the inhibition of growth at 10 µM was found to be 92.3%. Besides, the inhibition of growth at 1 µM in assay [2] came to 51.2%. The inhibition of growth at 0.1 µM in assay [3] turned out to be 36.2%. The molecule also gave an MIC90 in assay [4] of 8 µM (≈ 2.01 µg/mL).

The MIC90 is an inhibitory concentration at the 90% level, which refers to growth in some studies and to a panel of isolates in others.
